Assay results taken from article PMC10249086, “Novel N-Acyl Hydrazone Compounds as Promising Anticancer Agents: Synthesis and Molecular Docking Studies” (ACS Omega, 2023).

Columns and labels:
[1] = test system: ME-16C breast epithelial cells; experiment: MTT cytotoxicity assay, ME-16C normal cells; conditions: for IC50: read-out: IC50 ME-16C, normal breast epithelial cells, MTT, 48 h, 1–1000 μM; for cytotoxic effect in ME-16C cells: in the tested range of concentrations
Experimental: (§1) In this work, cells were treated with the compounds at concentrations ranging from 1 to 1000 M for 48 h in order to evaluate the in vitro cytotoxic effects on cancer (MCF-7, PC-3) and normal (ME-16C) cell lines.
(§2) Human breast cancer (MCF-7; ATCC Number: HTB-22), prostate cancer (PC-3; ATCC Number: CRL-1435), and breast epithelial (ME-16C; ATCC Number: CRL: 4101) cell lines were procured from American Type Culture Collection (ATCC Distributor: LGC Standards, Wessel, Germany) to be used in the cytotoxic activity assays. Cells were detached with a 0.25% Trypsin/EDTA solution upon 70–80% confluency and seeded into a new culture flask including DMEM-LG with 10% FBS and 0.1 mg/mL primocin, incubated in a 37 °C, 5% CO2 incubator. The medium was refreshed every 48 h, and the cells were passaged every 5–6 days.
(§3) Newly synthesized compounds were tested for their cytotoxic activity on cancer (MCF-7, PC-3) and normal (ME-16C) cell lines using the MTT assay. MTT is used to assess cell viability by determining the mitochondrial activity of living cells according to their ability to reduce the yellow tetrazolium salt MTT into purple formazan crystals. The MTT assay (Thermo) was carried out according to the manufacturer’s instructions. Briefly, cells were seeded on 96-well plates at a density of 1 × 10^4 cells/well and incubated in a 37 °C, 5% CO2 incubator. Cells were then treated with different concentrations (1–1000 μM) of compounds for 48 h. Following incubation, 10 μL of MTT solution was added to the cells and incubated for 4 h, and then 100 μL of solubilization solution was added and incubated overnight. Absorbance was measured at 570 nm using the microplate reader (Synergy H1, Biotek). […] All the experiments were performed three times, and each was carried out in triplicate.

[2] = test system: PC-3 prostate cancer cells; experiment: MTT cytotoxicity assay, PC-3; conditions: for IC50: Homo sapiens, 48 h, read-out: IC50 PC-3; for selectivity index (SI) for PC-3: ratio of IC50 values, PC-3 and ME-16C
Experimental: as §1, §2, §3

[3] = test system: MCF-7 breast cancer cells; experiment: MTT cytotoxicity assay, MCF-7; conditions: for IC50: Homo sapiens, MCF7, 48 h, read-out: IC50 MCF-7; for selectivity index (SI) for MCF-7: ratio of IC50 values, MCF-7 and ME-16C
Experimental: as §1, §2, §3

melting point [°C] | SMILES | IC50 [1] [µM] | IC50 [2] [µM] | IC50 [3] [µM] | cytotoxic effect on ME-16C cells ([1]; at the same concentration as the IC50 in cancer cells) | selectivity index (SI) for PC-3 [2] | selectivity index (SI) for MCF-7 [3] | cytotoxic effect in ME-16C cells [1]
199 to 200 | COc1ccc(/C=N/NC(=O)CCCC(=O)c2ccccc2)cc1 [Compound 7a] | 545.3 ± 0.75 | 57.3 ± 0.92 | 25.4 ± 0.82 | – | – | – | –
121 to 122.5 | COc1ccc(C=NNC(=O)CCCC(=O)c2ccc(Cl)cc2)cc1 [Compound 7b] | 158 ± 1.9 | 15 ± 0.4 | 10.3 ± 0.63 | – | – | – | –
133 to 134 | COc1ccc(C=NNC(=O)CCCC(=O)c2ccc(C)cc2)cc1 [Compound 7c] | 227.7 ± 1.76 | 12.6 ± 0.67 | 9.25 ± 0.54 | – | – | – | –
154 to 155 | COc1ccc(C=NNC(=O)CCCC(=O)c2ccc(OC)cc2)cc1 [Compound 7d] | 250.4 ± 1.88 | 10.2 ± 0.52 | 7.52 ± 0.32 | no cytotoxic effect | 24.57 | 33.30 | –
130 to 131 | COc1ccc(C=NNC(=O)CCCC(=O)c2cccs2)cc1 [Compound 7e] | 672.2 ± 2.69 | 10.8 ± 0.71 | 12.5 ± 0.84 | – | 62.18 | 53.60 | –
119 to 120 | O=C(CCCC(=O)c1ccccc1)NN=Cc1ccco1 [Compound 8a] | 471.8 ± 2.98 | 26.6 ± 0.92 | 11 ± 1.21 | – | – | – | –
132 to 133 | O=C(CCCC(=O)c1ccc(Cl)cc1)NN=Cc1ccco1 [Compound 8b] | – | 52 ± 0.88 | 50.8 ± 0.63 | – | – | – | did not cause any cytotoxic effect
133.5 to 134.5 | Cc1ccc(C(=O)CCCC(=O)NN=Cc2ccco2)cc1 [Compound 8c] | 480.5 ± 2.05 | 510.1 ± 1.1 | 471.5 ± 0.57 | – | – | – | –
144 to 145 | COc1ccc(C(=O)CCCC(=O)NN=Cc2ccco2)cc1 [Compound 8d] | – | 454.7 ± 2.31 | 510.2 ± 2.88 | – | – | – | did not cause any cytotoxic effect
121 to 122 | O=C(CCCC(=O)c1cccs1)NN=Cc1ccco1 [Compound 8e] | – | 500.5 ± 2.83 | 490.7 ± 3.49 | – | – | – | did not cause any cytotoxic effect
– | CC(C)CC=NNC(=O)CCCC(=O)c1ccccc1 [Compound 9a] | – | – | 120 ± 1.87 | – | – | – | –
– | CC(C)CC=NNC(=O)CCCC(=O)c1ccc(Cl)cc1 [Compound 9b] | – | 276 ± 5.9 | 210 ± 3.14 | – | – | – | –
– | Cc1ccc(C(=O)CCCC(=O)NN=CCC(C)C)cc1 [Compound 9c] | – | 106 ± 3.7 | 95.02 ± 0.76 | – | – | – | –
– | COc1ccc(C(=O)CCCC(=O)NN=CCC(C)C)cc1 [Compound 9d] | – | 152.1 ± 0.75 | 116 ± 2.7 | – | – | – | –
– | CC(C)CC=NNC(=O)CCCC(=O)c1cccs1 [Compound 9e] | – | 125.5 ± 1.1 | 100 ± 1.39 | – | – | – | –
– | COc1cccc2c1C(=O)c1c(O)c3c(c(O)c1C2=O)C[C@@](O)(C(=O)CO)C[C@@H]3O[C@H]1C[C@H](N)[C@H](O)[C@H](C)O1 [doxorubicin, reference compound] | 0.8 ± 0.09 | 0.75 ± 0.04 | 0.83 ± 0.07 | – | – | – | –
